The values that follow come from patent US20020172935A1, “Methods of screening for compounds that modulate blood vessel formation from circulating endothelial cell precursors” (priority 2000, published 2002).

This assay relates to murine allantois. As to the kind of experiment: Allantois explant culture: de novo vascular development, immunolabeling and confocal analysis. It is filed as cell-based, mouse. As to the method: Allantoides of 7.5dpc embryos were excised, washed in EPBS (4° C.) and then pipetted into Nunc 4 chambered culture slides (Fisher Scientific Co., Suwanee, Ga.) containing 0.4 ml of DMEM, 10% Fetal Bovine Serum, and 1% Penicillin Streptomycin. Explants were cultured at 37° C. in a 5% CO2 incubator for 12-20 hours and then fixed and permeabilized as described above. The explants were blocked in 3% BSA/PBSA 12-18 hrs, exposed to PECAM antibodies (1.5 hours, 26° C.), washed 3×40 minutes in PBSA, incubated in appropriate secondary antibodies (1.5 hours, 26° C.), washed in PBSA 3×30 minutes, and mounted as described above.
Embryos were analyzed using a Bio-Rad MRC 1024 Laser Scanning Confocal Microscope (Bio-Rad Microscopy Division, Cambridge, Mass.). Optical sectioning along the dorsoventral axis (Z-axis) was performed and the images collapsed into a single focal plane using manufacturer's software. Differential Interference Contrast (DIC) images were generated using a research grade Leitz™ photomicroscope equipped with a Photometrics™ (Tucson, Ariz.) Quantix CCD camera. Images were processed using NIH Image 1.62 software (NIH, Bethesda, Md.) and Adobe Photoshop 5.0 (Adobe Systems, Inc., San Jose, Calif.). […]

As for VEGF, the “vascular pattern (PECAM immunolabeling)” value (7.0 dpc allantois cultured 24 hours with VEGF 2 μg/ml (FIG. 3c)) was “overall sinusoidal vascular pattern”. Where the note is “allantois cultures, recombinant VEGF 2 μg/ml, 24 hr”, the vascular phenotype entry is “hyperfused vascular phenotype”.
